This assay has as its system microglia. Nature of the assay: TNF-α production of LPS/IFN-γ-stimulated isolated microglia (Test Examples 1 to 3). The format is cell-based, mouse. As to conditions: peptides at 10 μM and 50 μM; FIG. 2. The method, then: Microglia were isolated from the mouse brain by the magnetic cell sorting method. Specifically, the brain removed from a mouse was treated with papain to obtain a brain tissue dispersion and the enzyme reaction was stopped. Subsequently, the dispersion was reacted to CD11b antibody (manufactured by Miltenyi Biotec), a common microglia marker magnetically labelled with superparamagnetic microbeads, to carry out magnetic separation whereby microglia were isolated. The isolated microglia cell was cultured for 12 hours in medium to which the above 336 dipeptides were added in a concentration of 50 μM each. Subsequently, 5 ng/ml of lipopolysaccharide (LPS, manufactured by SIGMA-ALDRICH) and 0.5 ng/ml of IFN-γ (manufactured by R&D system) were added thereto, the cell was further cultured for 12 hours and TNF-α contained in the culture supernatant was quantitatively determined using an ELISA kit (manufactured by eBioscience). […] Note that the results are average values of three consecutive data. Additionally, hereinafter the amino acids are shown in one-letter abbreviations. […] Note that, for the control, those cultured with no addition of the peptides were used as in Test Example 1. For comparison, the dipeptides having the same amino acid composition with different sequences, that it, VD and HL were also measured for the TNF-α production at different concentrations.

For the substance “TDVE: tetrapeptide having DV as the core sequence”, the “inflammation suppression effect against microglia (TNF-α)” value is listed as “the most intense”.

The record behind these values is US10434133B2, “Inflammation-suppressing composition including peptide” (KIRIN KABUSHIKI KAISHA, priority 2015, dated 2019).
